Experimental findings from ChEMBL document CHEMBL3627617, “Investigation of new 2-aryl substituted Benzothiopyrano[4,3-d]pyrimidines as kinase inhibitors targeting vascular endothelial growth factor receptor 2” (Eur J Med Chem, 2015) are described below.

For assay [1], the system named is HUVEC. Briefly: Antiproliferative activity against human HUVEC cells assessed as reduction in cell viability after 72 hrs by trypan blue assay. The class given is functional.
For assay [2], the system named is A-431. Briefly: Antiproliferative activity against human A431 cells assessed as cell viability after 72 hrs by trypan blue assay. The class given is functional. As to conditions: A-431, 72 h.
Assay [3] has as its system HeLa. Briefly: Antiproliferative activity against human HeLa cells assessed as cell viability after 72 hrs by trypan blue assay. In kind it is functional.
Assay [4] concerns MSTO-211H. The experiment in a line: Antiproliferative activity against human MSTO-211H cells assessed as cell viability after 72 hrs by trypan blue assay. In kind it is functional.
Assay [5] concerns the target Vascular endothelial growth factor receptor 2 (Homo sapiens, UniProt P35968). Briefly: Inhibition of human KDR incubated for 50 mins by omnia tyr peptide 8 substrate based fluorescence assay.
Assay [6] concerns the target Epidermal growth factor receptor (Homo sapiens, UniProt P00533).
Assay [7] has as its system Aorta. The experiment in a line: Anti-angiogenic activity in rat aortic explant assessed as microvessel sprouting inhibition at 100 nM incubated for 7 days by rat aortic ring assay. The class given is functional. As to conditions: 168 h.
Assay [8] deals with Aorta. Briefly: Anti-angiogenic activity in rat aortic explant assessed as microvessel sprouting inhibition at 10 uM incubated for 7 days by rat aortic ring assay. To be noted: 168 h. In kind it is functional.
Assay [9] deals with Cyclin-dependent kinase 1 (Homo sapiens) (UniProt P06493). The experiment in a line: Inhibition of human CDK1 at 10 uM by kinase inhibition assay.
Assay [10] addresses Platelet-derived growth factor receptor beta (Homo sapiens) (UniProt P09619). Briefly: Inhibition of human PDGFRbeta at 10 uM by kinase inhibition assay.
The target in assay [11] is RAF proto-oncogene serine/threonine-protein kinase (Homo sapiens) (UniProt P04049). The experiment in a line: Inhibition of human RAF1 at 10 uM by kinase inhibition assay.
Assay [12] addresses Dual specificity mitogen-activated protein kinase kinase 1 (Homo sapiens) (UniProt Q02750). The experiment in a line: Inhibition of human MEK1 at 10 uM by kinase inhibition assay.
Assay [13] addresses Rho-associated protein kinase 1 (Homo sapiens) (UniProt Q13464). The experiment in a line: Inhibition of human ROCK1 at 10 uM by kinase inhibition assay.
The subject of assay [14] is Aorta. Briefly: Anti-angiogenic activity in rat aortic explant assessed as microvessel sprouting inhibition at 5 uM incubated for 7 days by rat aortic ring assay. The class given is functional. As to conditions: 168 h.
Assay [15] relates to Aorta. The experiment in a line: Anti-angiogenic activity in rat aortic explant assessed as microvessel sprouting inhibition at 1 uM incubated for 7 days by rat aortic ring assay. In kind it is functional. To be noted: 168 h.
Assay [16] addresses RAC-alpha serine/threonine-protein kinase (Homo sapiens) (UniProt P31749). Briefly: Inhibition of human Akt1 at 10 uM by kinase inhibition assay.
The target of assay [17] is Mitogen-activated protein kinase 3 (Homo sapiens) (UniProt P27361). The experiment in a line: Inhibition of human ERK1 at 10 uM by kinase inhibition assay.
Mitogen-activated protein kinase 3 (Homo sapiens), sequence (P27361 whole entry): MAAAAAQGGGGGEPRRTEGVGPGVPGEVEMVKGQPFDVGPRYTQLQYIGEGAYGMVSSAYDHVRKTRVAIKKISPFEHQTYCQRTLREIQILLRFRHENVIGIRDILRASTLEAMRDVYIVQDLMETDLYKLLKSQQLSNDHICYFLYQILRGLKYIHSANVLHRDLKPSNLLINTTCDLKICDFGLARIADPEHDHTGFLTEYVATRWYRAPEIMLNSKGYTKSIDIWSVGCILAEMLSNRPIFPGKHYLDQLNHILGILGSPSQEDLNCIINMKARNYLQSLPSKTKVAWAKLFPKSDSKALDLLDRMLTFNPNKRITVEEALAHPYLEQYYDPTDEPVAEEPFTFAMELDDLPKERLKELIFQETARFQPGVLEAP
Assay [18] addresses Focal adhesion kinase 1 (Homo sapiens) (UniProt Q05397). Briefly: Inhibition of human FAK at 10 uM by kinase inhibition assay.
The target of assay [19] is Proto-oncogene tyrosine-protein kinase Src (Homo sapiens) (UniProt P12931). The experiment in a line: Inhibition of human Src kinase at 10 uM by kinase inhibition assay.
The target in assay [20] is T1, Aurora kinase A (Homo sapiens) (UniProt O14965).
T1 sequence (whole entry): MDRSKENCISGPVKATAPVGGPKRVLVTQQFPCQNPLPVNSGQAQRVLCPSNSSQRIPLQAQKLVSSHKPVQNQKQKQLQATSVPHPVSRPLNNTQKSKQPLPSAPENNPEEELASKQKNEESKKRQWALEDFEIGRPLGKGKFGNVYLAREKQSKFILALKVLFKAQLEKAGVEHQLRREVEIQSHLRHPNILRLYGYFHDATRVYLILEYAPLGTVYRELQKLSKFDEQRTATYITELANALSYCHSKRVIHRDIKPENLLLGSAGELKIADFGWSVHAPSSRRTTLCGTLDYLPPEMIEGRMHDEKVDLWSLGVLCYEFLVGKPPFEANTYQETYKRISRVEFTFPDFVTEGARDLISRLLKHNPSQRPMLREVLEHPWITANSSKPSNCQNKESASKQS
The experiment in a line: Inhibition of human AurA kinase at 10 uM by kinase inhibition assay.

For assay [21], the system named is HL-60. The experiment in a line: Antiproliferative activity against human HL60 cells assessed as growth inhibition. In kind it is functional.

RAC-alpha serine/threonine-protein kinase (Homo sapiens), sequence (P31749 whole entry): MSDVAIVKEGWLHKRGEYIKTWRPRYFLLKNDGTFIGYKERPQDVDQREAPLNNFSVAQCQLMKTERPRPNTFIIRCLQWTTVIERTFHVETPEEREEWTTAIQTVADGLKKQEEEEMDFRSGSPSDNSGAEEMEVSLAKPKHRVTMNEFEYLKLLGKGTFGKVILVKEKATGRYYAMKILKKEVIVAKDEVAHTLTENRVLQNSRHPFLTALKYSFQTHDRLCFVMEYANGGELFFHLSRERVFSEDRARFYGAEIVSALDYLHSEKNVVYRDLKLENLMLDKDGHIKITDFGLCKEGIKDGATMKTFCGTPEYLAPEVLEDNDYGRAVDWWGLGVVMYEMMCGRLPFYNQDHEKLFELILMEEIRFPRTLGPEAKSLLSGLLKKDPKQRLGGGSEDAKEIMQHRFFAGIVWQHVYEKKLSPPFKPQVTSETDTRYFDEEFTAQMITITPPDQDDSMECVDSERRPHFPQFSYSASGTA
Rho-associated protein kinase 1 (Homo sapiens), sequence (Q13464 2-1354 limits assumed): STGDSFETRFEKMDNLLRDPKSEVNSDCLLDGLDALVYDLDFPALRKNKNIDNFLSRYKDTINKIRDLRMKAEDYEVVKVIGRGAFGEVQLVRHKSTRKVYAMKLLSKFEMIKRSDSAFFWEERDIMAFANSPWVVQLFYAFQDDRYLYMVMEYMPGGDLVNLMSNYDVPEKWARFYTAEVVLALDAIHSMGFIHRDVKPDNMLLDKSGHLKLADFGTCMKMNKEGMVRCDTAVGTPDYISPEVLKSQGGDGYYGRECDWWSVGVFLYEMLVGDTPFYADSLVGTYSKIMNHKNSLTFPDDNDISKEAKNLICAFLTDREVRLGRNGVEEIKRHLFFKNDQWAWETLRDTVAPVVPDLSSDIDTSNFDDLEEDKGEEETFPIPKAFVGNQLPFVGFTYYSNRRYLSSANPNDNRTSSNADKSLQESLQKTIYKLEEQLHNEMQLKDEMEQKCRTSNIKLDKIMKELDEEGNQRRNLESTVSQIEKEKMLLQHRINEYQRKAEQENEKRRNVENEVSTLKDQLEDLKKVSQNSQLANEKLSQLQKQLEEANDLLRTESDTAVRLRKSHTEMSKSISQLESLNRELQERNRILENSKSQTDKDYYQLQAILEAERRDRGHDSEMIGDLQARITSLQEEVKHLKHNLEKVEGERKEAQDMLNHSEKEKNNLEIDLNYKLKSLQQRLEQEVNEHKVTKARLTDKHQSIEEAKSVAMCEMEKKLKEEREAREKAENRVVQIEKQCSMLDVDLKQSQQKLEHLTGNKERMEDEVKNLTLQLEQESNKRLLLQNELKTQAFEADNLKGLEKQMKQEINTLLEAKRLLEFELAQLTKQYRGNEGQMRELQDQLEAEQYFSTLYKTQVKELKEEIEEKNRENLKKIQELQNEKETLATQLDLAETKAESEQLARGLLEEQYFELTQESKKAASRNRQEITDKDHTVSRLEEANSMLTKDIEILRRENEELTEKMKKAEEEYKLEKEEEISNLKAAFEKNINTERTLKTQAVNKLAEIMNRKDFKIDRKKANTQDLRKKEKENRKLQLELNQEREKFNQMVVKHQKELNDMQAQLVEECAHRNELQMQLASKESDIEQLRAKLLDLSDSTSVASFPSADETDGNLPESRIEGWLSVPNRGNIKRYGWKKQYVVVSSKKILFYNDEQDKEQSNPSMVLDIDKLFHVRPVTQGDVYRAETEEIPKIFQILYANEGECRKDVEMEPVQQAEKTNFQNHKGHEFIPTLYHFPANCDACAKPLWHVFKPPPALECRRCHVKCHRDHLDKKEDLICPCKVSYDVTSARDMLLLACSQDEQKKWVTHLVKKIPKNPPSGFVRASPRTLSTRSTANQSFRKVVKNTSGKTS
Epidermal growth factor receptor, sequence (P00533 whole entry): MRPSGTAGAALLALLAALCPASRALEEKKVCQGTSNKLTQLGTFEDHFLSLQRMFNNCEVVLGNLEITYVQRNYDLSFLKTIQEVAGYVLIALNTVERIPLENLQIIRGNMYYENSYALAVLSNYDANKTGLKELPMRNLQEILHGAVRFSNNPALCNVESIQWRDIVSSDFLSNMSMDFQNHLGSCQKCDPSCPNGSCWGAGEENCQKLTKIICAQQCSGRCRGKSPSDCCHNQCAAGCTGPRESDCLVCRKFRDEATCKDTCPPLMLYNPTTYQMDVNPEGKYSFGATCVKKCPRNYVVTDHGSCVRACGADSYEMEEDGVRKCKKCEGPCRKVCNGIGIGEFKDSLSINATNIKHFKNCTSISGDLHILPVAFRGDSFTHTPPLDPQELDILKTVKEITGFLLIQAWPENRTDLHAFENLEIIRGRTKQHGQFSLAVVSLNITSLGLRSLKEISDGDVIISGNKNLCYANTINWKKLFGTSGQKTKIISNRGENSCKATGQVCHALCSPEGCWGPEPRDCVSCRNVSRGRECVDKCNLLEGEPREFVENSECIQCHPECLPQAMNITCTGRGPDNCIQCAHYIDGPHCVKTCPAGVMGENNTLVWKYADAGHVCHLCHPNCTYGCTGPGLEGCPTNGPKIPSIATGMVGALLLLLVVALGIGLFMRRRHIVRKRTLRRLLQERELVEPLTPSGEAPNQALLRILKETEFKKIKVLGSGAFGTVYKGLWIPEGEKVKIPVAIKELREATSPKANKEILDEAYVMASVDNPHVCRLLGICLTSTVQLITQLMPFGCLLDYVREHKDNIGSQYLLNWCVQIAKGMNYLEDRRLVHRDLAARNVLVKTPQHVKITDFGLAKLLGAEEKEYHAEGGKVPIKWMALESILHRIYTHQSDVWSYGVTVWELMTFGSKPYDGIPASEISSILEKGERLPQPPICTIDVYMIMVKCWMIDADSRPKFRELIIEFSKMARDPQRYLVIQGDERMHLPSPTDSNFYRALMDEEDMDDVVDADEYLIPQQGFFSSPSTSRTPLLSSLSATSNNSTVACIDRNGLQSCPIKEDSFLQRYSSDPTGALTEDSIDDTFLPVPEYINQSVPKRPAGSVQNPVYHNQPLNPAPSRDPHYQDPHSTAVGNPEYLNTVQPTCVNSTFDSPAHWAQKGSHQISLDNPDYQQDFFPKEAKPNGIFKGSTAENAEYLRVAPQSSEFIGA
Focal adhesion kinase 1 (Homo sapiens), sequence (Q05397 2-1052 limits assumed): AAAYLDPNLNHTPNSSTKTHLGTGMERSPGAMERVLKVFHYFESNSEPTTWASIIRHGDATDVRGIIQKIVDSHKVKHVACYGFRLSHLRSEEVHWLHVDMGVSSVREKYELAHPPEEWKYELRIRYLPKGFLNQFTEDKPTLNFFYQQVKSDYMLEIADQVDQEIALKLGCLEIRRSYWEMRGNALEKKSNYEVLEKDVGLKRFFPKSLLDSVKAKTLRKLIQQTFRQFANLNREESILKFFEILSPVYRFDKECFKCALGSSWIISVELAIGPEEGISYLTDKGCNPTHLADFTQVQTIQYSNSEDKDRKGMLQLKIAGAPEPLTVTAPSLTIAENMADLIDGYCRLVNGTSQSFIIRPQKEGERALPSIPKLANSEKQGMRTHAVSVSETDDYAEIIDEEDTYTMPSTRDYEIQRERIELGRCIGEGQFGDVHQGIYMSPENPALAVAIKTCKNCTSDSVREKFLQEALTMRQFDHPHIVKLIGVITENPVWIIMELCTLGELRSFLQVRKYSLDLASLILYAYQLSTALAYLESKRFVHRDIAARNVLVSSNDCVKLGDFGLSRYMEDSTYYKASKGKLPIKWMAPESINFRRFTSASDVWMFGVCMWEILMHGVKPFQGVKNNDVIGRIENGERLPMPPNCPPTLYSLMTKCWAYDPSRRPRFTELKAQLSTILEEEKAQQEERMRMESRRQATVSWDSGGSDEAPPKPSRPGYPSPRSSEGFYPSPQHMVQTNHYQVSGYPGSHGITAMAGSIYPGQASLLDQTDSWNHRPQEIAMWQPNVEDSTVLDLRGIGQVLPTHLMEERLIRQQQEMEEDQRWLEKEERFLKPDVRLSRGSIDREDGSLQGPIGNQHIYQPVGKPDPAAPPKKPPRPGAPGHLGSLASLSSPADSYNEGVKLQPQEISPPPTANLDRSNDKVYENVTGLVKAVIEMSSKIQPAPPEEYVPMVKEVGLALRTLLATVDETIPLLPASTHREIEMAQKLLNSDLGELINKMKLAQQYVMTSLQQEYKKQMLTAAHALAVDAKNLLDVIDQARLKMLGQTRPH
Dual specificity mitogen-activated protein kinase kinase 1 (Homo sapiens), sequence (Q02750 whole entry): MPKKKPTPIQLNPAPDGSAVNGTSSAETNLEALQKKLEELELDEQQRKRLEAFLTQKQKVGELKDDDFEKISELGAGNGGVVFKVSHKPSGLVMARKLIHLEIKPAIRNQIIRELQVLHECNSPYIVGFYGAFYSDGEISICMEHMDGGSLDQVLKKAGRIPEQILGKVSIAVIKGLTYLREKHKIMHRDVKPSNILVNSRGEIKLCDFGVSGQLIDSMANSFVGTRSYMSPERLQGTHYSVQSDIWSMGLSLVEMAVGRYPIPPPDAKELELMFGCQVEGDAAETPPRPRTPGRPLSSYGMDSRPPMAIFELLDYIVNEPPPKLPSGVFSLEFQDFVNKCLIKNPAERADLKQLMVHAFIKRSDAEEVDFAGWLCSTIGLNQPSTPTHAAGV

As for `Clc1ccc2c(c1)SCc1cnc(-c3ccccc3)nc1-2`, the GI50 – broadly, the concentration that inhibits growth by half – is 2.3 µM in assay [1], > 20 µM in [2], > 20 µM in assay [3] and > 20 µM in assay [4].
`Clc1ccc(Nc2ncc3c(n2)-c2ccccc2SC3)cc1`: the GI50 in assay [1] is 7.3 µM; in [2], > 20 µM; in [3], 15.6 µM; in [4], 11.5 µM. In addition, in assay [5], the IC50 (in general, the point on the concentration scale where inhibition reaches its midpoint) is > 50 µM.
As for `COc1ccc(-c2ncc3c(n2)-c2ccc(OC)cc2SC3)cc1`, the GI50 was 4.8 µM in assay [1], > 20 µM in assay [2], > 20 µM in assay [3] and > 20 µM in assay [4].
Take `c1ccc(Nc2ncc3c(n2)-c2ccccc2SC3)cc1`: the GI50 was 2.4 µM in assay [1], > 20 µM in assay [2], 10.2 µM in assay [3] and 11.7 µM in assay [4]. This molecule also registered an IC50 in assay [5] of 8.2 µM.
Take `COc1ccc2c(c1)SCc1cnc(NCc3ccccc3)nc1-2`: the GI50 in assay [1], in assay [2], in assay [3] and in assay [4] was > 20 µM throughout.
Take `COc1ccc(CNc2ncc3c(n2)-c2ccc(OC)cc2SC3)cc1`: the GI50 in [1], in [2], in [3] and in assay [4] was > 20 µM each time.
Take `COc1ccc2c(c1)SCc1cnc(-c3ccc(Cl)cc3)nc1-2`: the GI50 in assay [1], in [2], in assay [3] and in assay [4] was > 20 µM each time.
As for `Clc1ccc(Nc2ncc3c(n2)-c2ccc(Cl)cc2SC3)cc1`, the IC50 amounted to 45.7 µM in [6] and 5.6 µM in [5]. Besides, the GI50 came to 0.35 µM in [1], 2.2 µM in assay [2], 1.5 µM in assay [3] and 1.6 µM in assay [4]. Further, the inhibition – broadly, the relative decrease from the control value, in per cent – at 0.1 µM in [7] is -0.5%. Besides, in assay [8], the inhibition at 10 µM was found to be 98%. Moreover, the inhibition in assay [9] was -3.2%; in assay [10], 2.5%; in [11] it was -1.5%; in assay [12] it was 5.9%; in [13] it was -5.6%; in assay [16] it was 3%. Further, the inhibition in [17] was -4.3%; in [18], -0.9%; in assay [19], 8.8%; in assay [20], 0%. Besides, the inhibition at 5 µM in assay [14] amounted to 88%. In assay [15], the inhibition at 1 µM is 15%.
As for `COc1ccc(-c2ncc3c(n2)-c2ccccc2SC3)cc1`, the GI50 is 12 µM in assay [1], > 20 µM in assay [2], > 20 µM in assay [3] and > 20 µM in assay [4].
Consider `COc1ccc(-c2ncc3c(n2)-c2ccc(Cl)cc2SC3)cc1`, for which the GI50 was 4.7 µM in assay [1], > 20 µM in assay [2], > 20 µM in assay [3] and > 20 µM in [4].
In the case of `COc1ccc(CNc2ncc3c(n2)-c2ccccc2SC3)cc1`, the GI50 in [1], in assay [2], in assay [3] and in [4] was > 20 µM each time.
In [6], `COc1ccc2c(c1)SCc1cnc(-c3ccccc3)nc1-2` yielded an IC50 of 4.72 µM. Moreover, the concentration for 50% growth inhibition (GI50) in assay [1] is 2.9 µM; in [2], 6.5 µM; in assay [3], > 20 µM; in assay [4], 11.9 µM. Further, the inhibition in assay [9] was -4.2%; in assay [10] it was -6%; in assay [11], 2.6%; in assay [12], 14.6%; in [13], -6.3%; in assay [16] it was -4%. For the same molecule, the inhibition in assay [17] is -1.7%; in assay [18], 11.6%; in assay [19], 0.3%; in [20], -2.2%.
On to `Clc1ccc2c(c1)SCc1cnc(Nc3ccccc3)nc1-2`, for which the GI50 in [1], in [2], in assay [3] and in [4] was > 20 µM in each case. Besides, the IC50 in assay [5] was > 50 µM.
As for `c1ccc(-c2ncc3c(n2)-c2ccccc2SC3)cc1`, the GI50 in [1] was 4 µM; in assay [2] it was > 20 µM; in assay [3], > 20 µM; in [4] it was > 20 µM.
With `Clc1ccc2c(c1)SCc1cnc(NCc3ccccc3)nc1-2`, the GI50 in assay [1] is 15.1 µM; in assay [2] it was > 20 µM; in assay [3] it was > 20 µM; in [4] it was > 20 µM.
Turning to `Clc1ccc(-c2ncc3c(n2)-c2ccc(Cl)cc2SC3)cc1`, the GI50 in assay [1] was 15.3 µM; in assay [2], > 20 µM; in assay [3] it was > 20 µM; in assay [4], > 20 µM.
Take `Clc1ccc(CNc2ncc3c(n2)-c2ccccc2SC3)cc1`: the GI50 in assay [1] is 12.3 µM; in [2], > 20 µM; in assay [3], > 20 µM; in assay [4] it was > 20 µM.
Regarding `COc1ccc(Nc2ncc3c(n2)-c2ccc(Cl)cc2SC3)cc1`, the values for the IC50 in assay [6] and in assay [5] were 21.6 µM and > 50 µM, respectively. Besides, the GI50 in assay [1] is 16.4 µM; in [2], 5.8 µM; in assay [3], 2.1 µM; in assay [4] it was > 20 µM.
On to `COc1ccc2c(c1)SCc1cnc(Nc3ccccc3)nc1-2`, for which the GI50 was 4.3 µM in assay [1], > 20 µM in assay [2], 20.1 µM in assay [3] and 15 µM in assay [4]. The IC50 in [5] was > 50 µM.
Take `COc1ccc(Nc2ncc3c(n2)-c2ccccc2SC3)cc1`: the GI50 in assay [1] was 0.45 µM; in [2], 0.96 µM; in [3], 0.7 µM; in assay [4], 1.08 µM. Besides, in [7], the inhibition at 0.1 µM is -8%. The inhibition at 10 µM in assay [8] worked out at 96%. The inhibition in [9] is 84.8%; in assay [10], 42%; in assay [11], 4.1%; in assay [12] it was 21.6%; in assay [13], -0.4%; in assay [16], 1.4%. Also, the inhibition in assay [17] was -1.8%; in assay [18], 47.3%; in assay [19], 12%; in assay [20] it was 71.7%. In addition, in assay [14], the inhibition at 5 µM is 95%. Moreover, the inhibition at 1 µM in assay [15] is 9%.
For the molecule `COc1ccc(Nc2ncc3c(n2)-c2ccc(OC)cc2SC3)cc1`, the GI50 in assay [1] amounted to 0.74 µM; in [2], 0.96 µM; in assay [3], 0.83 µM; in assay [4], 1.08 µM. This molecule also showed an IC50 in assay [5] of 17.5 µM.
With `COc1ccc(CNc2ncc3c(n2)-c2ccc(Cl)cc2SC3)cc1`, the GI50 in [1] is 12 µM; in assay [2] it was > 20 µM; in assay [3], > 20 µM; in assay [4], > 20 µM.
Consider `c1ccc(CNc2ncc3c(n2)-c2ccccc2SC3)cc1`, for which the GI50 in assay [1], in assay [2], in [3] and in [4] was > 20 µM in each case.
As for `COc1ccc2c(c1)SCc1ncc(-c3ccccc3)nc1-2`, the GI50 in [21] turned out to be 7.15 µM.
Regarding `Clc1ccc(CNc2ncc3c(n2)-c2ccc(Cl)cc2SC3)cc1`, the 50% growth inhibitory concentration (GI50) in [1] was 17 µM; in assay [2], > 20 µM; in assay [3], > 20 µM; in assay [4], > 20 µM.
As for `COc1ccc2c(c1)SCc1cnc(Nc3ccc(Cl)cc3)nc1-2`, the GI50 in assay [1], in [2], in assay [3] and in assay [4] was > 20 µM in each case. The IC50 in assay [5] is > 50 µM.
On to `Cc1cc(C)c(/C=C2\C(=O)Nc3ccccc32)[nH]1` [SEMAXANIB], for which, in assay [1], the GI50 is 13.6 µM. The inhibition at 0.1 µM in assay [7] is -12%. In addition, the inhibition at 10 µM in [8] is 100%. Moreover, in [14], the inhibition at 5 µM amounted to 72%. Moreover, the inhibition at 1 µM in assay [15] is -2%.
`Clc1ccc(-c2ncc3c(n2)-c2ccccc2SC3)cc1`: the GI50 in assay [1] was 11.3 µM; in assay [2], > 20 µM; in assay [3], > 20 µM; in [4], > 20 µM.
Turning to `COc1ccc2c(c1)SCc1cnc(NCc3ccc(Cl)cc3)nc1-2`, the GI50 in assay [1], in [2], in [3] and in assay [4] was > 20 µM in each case.
